Data reported in patent US20260092074A1, “Annelated Pyridines as Steroidogenesis Inhibitors, Preparation Method and Use Thereof” (Guangzhou Vinnocent Pharmaceutical Limited, priority 2022, published 2026).

Columns and labels:
[1] = biological target: T1, human CYP11B1 (Homo sapiens, UniProt P15538); test: Inhibition of hCYP11B1 in transfected V79 cells; type: cell-based; details: hamster V79 cells expressing human CYP11B1; substrate 11-deoxycortisol 200 nM
T1 construct: expressed in transfected cells
T1 sequence (P15538 25-503): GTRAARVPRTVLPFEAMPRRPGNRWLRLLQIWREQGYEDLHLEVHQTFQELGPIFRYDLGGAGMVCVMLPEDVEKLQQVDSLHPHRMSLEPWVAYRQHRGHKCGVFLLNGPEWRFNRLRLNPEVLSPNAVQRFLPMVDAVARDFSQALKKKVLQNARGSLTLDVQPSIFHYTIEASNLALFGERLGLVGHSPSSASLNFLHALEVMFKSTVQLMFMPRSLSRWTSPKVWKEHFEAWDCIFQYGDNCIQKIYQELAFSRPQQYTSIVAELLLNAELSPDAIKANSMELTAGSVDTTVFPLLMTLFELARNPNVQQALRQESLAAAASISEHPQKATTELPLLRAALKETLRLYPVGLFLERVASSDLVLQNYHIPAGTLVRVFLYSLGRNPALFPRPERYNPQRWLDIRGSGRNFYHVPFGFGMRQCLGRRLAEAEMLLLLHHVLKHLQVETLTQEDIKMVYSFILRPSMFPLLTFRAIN
Method in brief: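 V79 hamster cells stably expressing human CYP11B1 and rat NADPH-P450 reductase were preincubated with compounds for 2 h. 11-Deoxycortisol (200 nM) was then added as substrate for 30 min before ethyl acetate quench. Substrate and product were quantified by LC-MS/MS or HPLC at 260 nm, and IC50 was derived from percent inhibition.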

[2] = biological target: T2, human CYP11B2 (Homo sapiens, UniProt P19099); test: Inhibition of hCYP11B2 in transfected V79 cells; type: cell-based; details: hamster V79 cells expressing human CYP11B2; substrate 11-deoxycorticosterone 200 nM
T2 construct: expressed in transfected cells
T2 sequence (P19099 25-503): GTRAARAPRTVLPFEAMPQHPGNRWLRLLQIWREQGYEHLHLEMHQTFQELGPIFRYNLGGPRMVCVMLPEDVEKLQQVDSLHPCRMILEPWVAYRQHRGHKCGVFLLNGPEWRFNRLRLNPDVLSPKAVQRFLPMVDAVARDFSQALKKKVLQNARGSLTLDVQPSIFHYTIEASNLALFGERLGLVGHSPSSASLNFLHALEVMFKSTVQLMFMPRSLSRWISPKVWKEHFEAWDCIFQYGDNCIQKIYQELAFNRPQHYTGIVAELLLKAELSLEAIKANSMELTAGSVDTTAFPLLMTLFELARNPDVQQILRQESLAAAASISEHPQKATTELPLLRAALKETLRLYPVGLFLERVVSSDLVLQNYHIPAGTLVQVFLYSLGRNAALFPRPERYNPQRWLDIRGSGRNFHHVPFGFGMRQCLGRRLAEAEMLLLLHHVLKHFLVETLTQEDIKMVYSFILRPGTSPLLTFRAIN
Method in brief: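 Hamster V79 cells stably co-expressing human CYP11B2 and rat NADPH-P450 reductase were pre-incubated with compounds for 2 hours, then given 200 nM 11-deoxycorticosterone for 30 minutes before ethyl acetate quench. Substrate and product were quantified by LC-MS/MS or HPLC at 260 nm, and IC50 was derived from percent inhibition.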

SMILES | IC50 [1] [nM] | IC50 [2] [nM]
N#Cc1ccc(-c2cncc3c2CCN3C(=O)Cc2cccc(Cl)c2)cc1 [C71, 4-(1-(2-(3-Chlorophenyl)acetyl)-2,3-dihydro-1H-pyrrolo[2,3-c]pyridin-4-yl)benzonitrile] | 28 | 2
N#Cc1ccc(-c2cncc3c2OCCN3C(=O)C2CN(c3ccc(C#N)cc3)C2)cc1 [O87, 4-(3-(8-(4-Cyanophenyl)-3,4-dihydro-2H-pyrido[4,3-b][1,4]oxazine-4-carbonyl)azetidin-1-yl)benzonitrile] | 55 | 2.5
N#Cc1ccc(-c2cncc3c2OCCN3C(=O)[C@@H]2CCN(Cc3cccc(F)c3)C2)cc1 [O105, (R)-4-(4-(1-(3-Fluorobenzyl)pyrrolidine-3-carbonyl)-3,4-dihydro-2H-pyrido[4,3-b][1,4]oxazin-8-yl)benzonitrile] | 650 | 29
COc1cccc(S(=O)(=O)N2CC(S(=O)(=O)N3CCOc4c(-c5ccc(C#N)cc5)cncc43)C2)c1 [O119, 4-(4-((1-((3-Methoxyphenyl)sulfonyl)azetidin-3-yl)sulfonyl)-3,4-dihydro-2H-pyrido[4,3-b][1,4]oxazin-8-yl)benzonitrile] | 38 | 4.2
N#Cc1ccc(-c2cncc3c2SCCN3C(=O)c2cccc(F)c2)cc1 [S4, 4-(4-(3-Fluorobenzoyl)-3,4-dihydro-2H-pyrido[4,3-b][1,4]thiazin-8-yl)benzonitrile] | 1370 | 34.8
CN1CCN(C(=O)c2ccc(F)cc2)c2cncc(-c3ccc(C#N)cc3)c21 [N5, 4-(4-(4-Fluorobenzoyl)-1-methyl-1,2,3,4-tetrahydropyrido[3,4-b]pyrazin-8-yl)benzonitrile] | 48 | 7.8
N#Cc1ccc(-c2cncc3c2OCCN3S(=O)(=O)c2ccc(C#N)cc2)cc1 [O130, 4-((8-(4-Cyanophenyl)-2,3-dihydro-4H-pyrido[4,3-b][1,4]oxazin-4-yl)sulfonyl)benzonitrile] | 97 | 5
COc1ccc(S(=O)(=O)N2CCOc3c(-c4ccc(C#N)cc4)cncc32)cc1 [O8, 4-(4-((4-Methoxyphenyl)sulfonyl)-3,4-dihydro-2H-pyrido[4,3-b][1,4]oxazin-8-yl)benzonitrile] | 0.02 | 0.02
O=C(c1ccccc1F)N1CCc2c(-c3ccc4[nH]ncc4c3)cncc21 [C50, (4-(1H-Indazol-5-yl)-2,3-dihydro-1H-pyrrolo[2,3-c]pyridin-1-yl)(2-fluorophenyl)methanone] | 1270 | 97
N#Cc1ccc(-c2cncc3c2SCCN3S(=O)(=O)c2ccccc2)cc1 [S8, 4-(4-(Phenylsulfonyl)-3,4-dihydro-2H-pyrido[4,3-b][1,4]thiazin-8-yl)benzonitrile] | 1.5 | 0.1
N#Cc1ccc(-c2cncc3c2SCCN3S(=O)(=O)C2CN(S(=O)(=O)c3ccc(F)cc3)C2)cc1 [S74, 4-(4-((1-((4-Fluorophenyl)sulfonyl)azetidin-3-yl)sulfonyl)-3,4-dihydro-2H-pyrido[4,3-b][1,4]thiazin-8-yl)benzonitrile] | 22 | 1.7
N#Cc1ccc(-c2cncc3c2OCCN3S(=O)(=O)c2cccc(Cl)c2)cc1 [O7, 4-(4-((3-Chlorophenyl)sulfonyl)-3,4-dihydro-2H-pyrido[4,3-b][1,4]oxazin-8-yl)benzonitrile] | 0.12 | 0.47
Cc1cccc(C(=O)N2CCc3c(-c4ccc(C#N)cc4)cncc32)c1 [C40, 4-(1-(3-Methylbenzoyl)-2,3-dihydro-1H-pyrrolo[2,3-c]pyridin-4-yl)benzonitrile] | 352 | 29
N#Cc1ccc(-c2cncc3c2OCCN3C(=O)c2cccc([N+](=O)[O-])c2)cc1 [O27, 4-(4-(3-Nitrobenzoyl)-3,4-dihydro-2H-pyrido[4,3-b][1,4]oxazin-8-yl)benzonitrile] | 1200 | 23.6
N#Cc1ccc(S(=O)(=O)N2CCSc3c(-c4ccc5[nH]ncc5c4)cncc32)cc1 [S48, 4-((8-(1H-Indazol-5-yl)-2,3-dihydro-4H-pyrido[4,3-b][1,4]thiazin-4-yl)sulfonyl)benzonitrile] | 14 | 25
N#Cc1ccc(-c2cncc3c2OCCN3C(=O)C2CN(S(=O)(=O)c3cccc([N+](=O)[O-])c3)C2)cc1 [O63, 4-(4-(1-((3-Nitrophenyl)sulfonyl)azetidine-3-carbonyl)-3,4-dihydro-2H-pyrido[4,3-b][1,4]oxazin-8-yl)benzonitrile] | 181 | 2
COc1ccc(S(=O)(=O)N2CCc3c(-c4ccc(C#N)cc4)cncc32)cc1 [C3, 4-(1-((4-Methoxyphenyl)sulfonyl)-2,3-dihydro-1H-pyrrolo[2,3-c]pyridin-4-yl)benzonitrile] | 0.2 | 0.16
N#Cc1ccc(-c2cncc3c2CCN3C(=O)c2cccnc2)cc1 [C29, 4-(1-Nicotinoyl-2,3-dihydro-1H-pyrrolo[2,3-c]pyridin-4-yl)benzonitrile] | 185 | 1.7
N#Cc1ccc(-c2cncc3c2OCCN3S(=O)(=O)C2CC(c3cccc(C#N)c3)=NO2)cc1 (centres unmarked) [O101, 3-(5-((8-(4-Cyanophenyl)-2,3-dihydro-4H-pyrido[4,3-b][1,4]oxazin-4-yl)sulfonyl)-4,5-dihydroisoxazol-3-yl)benzonitrile] | 57 | 0.4
N#Cc1ccc(-c2cncc3c2OCCN3C(=O)C2CN(Cc3cccc(C#N)c3)C2)cc1 [O80, 3-((3-(8-(4-Cyanophenyl)-3,4-dihydro-2H-pyrido[4,3-b][1,4]oxazine-4-carbonyl)azetidin-1-yl)methyl)benzonitrile] | 185 | 1
COc1cccc(S(=O)(=O)N2CCc3c(-c4ccc(C#N)cc4)cncc32)c1 [C19, 4-(1-((3-Methoxyphenyl)sulfonyl)-2,3-dihydro-1H-pyrrolo[2,3-c]pyridin-4-yl)benzonitrile] | 9.5 | 4.3
N#Cc1ccc(CN2CC(S(=O)(=O)N3CCSc4c(-c5ccc(C#N)cc5)cncc43)C2)cc1 [S80, 4-(4-((1-(4-Cyanobenzyl)azetidin-3-yl)sulfonyl)-3,4-dihydro-2H-pyrido[4,3-b][1,4]thiazin-8-yl)benzonitrile] | 18 | 0.6
Cc1ccc(CC(=O)N2CCOc3c(-c4ccc(C#N)cc4)cncc32)cc1 [O42, 4-(4-(2-(p-Tolyl)acetyl)-3,4-dihydro-2H-pyrido[4,3-b][1,4]oxazin-8-yl)benzonitrile] | 67 | 0.6
O=S(=O)(N1CCn2cnnc2C1)N1CCSc2c(-c3cc4cc(Cl)ccc4o3)cncc21 [S102, 8-(5-Chlorobenzofuran-2-yl)-4-((5,6-dihydro-[1,2,4]triazolo[4,3-a]pyrazin-7 (8H)-yl)sulfonyl)-3,4-dihydro-2H-pyrido[4,3-b][1,4]thiazine] | 3710 | 36
N#Cc1ccc(-c2cncc3c2ccn3S(=O)(=O)c2ccc(Cl)nc2)cc1 [E18, 4-(1-((6-Chloropyridin-3-yl)sulfonyl)-1H-pyrrolo[2,3-c]pyridin-4-yl)benzonitrile] | 3.8 | 1.2
COc1cccc(C2=NOC(S(=O)(=O)N3CCOc4c(-c5ccc(C#N)cc5)cncc43)C2)c1 (centres unmarked) [O100, 4-(4-((3-(3-Methoxyphenyl)-4,5-dihydroisoxazol-5-yl)sulfonyl)-3,4-dihydro-2H-pyrido[4,3-b][1,4]oxazin-8-yl)benzonitrile] | 102 | 0.3
COc1ccccc1C(=O)N1CCc2c(-c3ccc(C#N)cc3)cncc21 [C34, 4-(1-(2-Methoxybenzoyl)-2,3-dihydro-1H-pyrrolo[2,3-c]pyridin-4-yl)benzonitrile] | 284 | 22
N#Cc1ccc(-c2cncc3c2OCCN3S(=O)(=O)c2cccc(C(F)(F)F)c2)cc1 [O12, 4-(4-((3-(Trifluoromethyl)phenyl)sulfonyl)-3,4-dihydro-2H-pyrido[4,3-b][1,4]oxazin-8-yl)benzonitrile] | 0.74 | 0.18
